Measurements published in patent US8846669B2, “Oxazolidinone derivative and medical composition containing same” (Legochem Biosciences, Inc., priority 2011, dated 2014).
In brackets after ≈: the same amount, converted by molar mass. Read-outs that look alike come from different tables or passages of the source.

Assays:
Assay in all cases: In vitro antibacterial activity, broth microdilution MIC90
Format in all cases: cell-based
[1] = test system: Vancomycin Resistant Enterococcus faecium
Procedure, shortened: (§1)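 Antibacterial testing used the CLSI M7-A5 dilution method for aerobic bacteria across twelve strains, including resistant staphylococcal and enterococcal isolates. Final drug levels of 0.063 μg/mL up to 128 μg/mL were tested; linezolid was included for comparison.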

[2] = test system: Staphylococcus epidermidis
Procedure, shortened: as §1

[3] = test system: Moraxella catarrhalis
Procedure, shortened: as §1

[4] = test system: Linezolid and Vancomycin Resistant Enterococcus faecium (strain 10)
Procedure, shortened: as §1

[5] = test system: Staphylococcus aureus
Procedure, shortened: as §1

[6] = test system: Enterococcus faecium
Procedure, shortened: as §1

[7] = test system: Linezolid and Vancomycin Resistant Enterococcus faecium (strain 11)
Procedure, shortened: as §1

[8] = test system: Enterococcus faecalis
Procedure, shortened: as §1

[9] = test system: Methicillin Resistant Staphylococcus epidermidis
Procedure, shortened: as §1

[10] = test system: Methicillin Resistant Staphylococcus aureus
Procedure, shortened: as §1

[11] = test system: Linezolid and Vancomycin Resistant Enterococcus faecalis
Procedure, shortened: as §1

[12] = test system: Vancomycin Resistant Enterococcus faecalis
Procedure, shortened: as §1

[13] = Enterococcus faecium, strain 9, E. faecium VanA, read-out: MIC90
[14] = Staphylococcus epidermidis, strain 3, S. epidermidis, read-out: MIC90
[15] = Moraxella catarrhalis, strain 12, M. catarrhalis, read-out: MIC90
[16] = Enterococcus faecium, strain 10, E. faecium VanA LR, read-out: MIC90
[17] = Staphylococcus aureus, strain 1, S. aureus, read-out: MIC90
[18] = Enterococcus faecium, strain 8, E. faecium, read-out: MIC90
[19] = Enterococcus faecium, strain 11, E. faecium VanA LR, read-out: MIC90
[20] = Enterococcus faecalis, strain 5, E. faecalis, read-out: MIC90
[21] = Staphylococcus epidermidis, strain 4, S. epidermidis MR, read-out: MIC90
[22] = Staphylococcus aureus, strain 2, S. aureus MR, read-out: MIC90
[23] = Enterococcus faecalis, strain 7, E. faecalis VanA LR, read-out: MIC90
[24] = Enterococcus faecalis, strain 6, E. faecalis VanA, read-out: MIC90

CC(=O)NC[C@H]1CN(c2ccc(-c3ccc(N4C=NN(C(=O)C(O)CO)CC4)nc3)c(F)c2)C(=O)O1 (stereo partly drawn) [Compound 21]
MIC90 [1, 13]: 0.5 µg/mL (≈ 0.999 µM) | MIC90 [2, 14]: 0.5 µg/mL (≈ 0.999 µM) | MIC90 [3, 15]: 4 µg/mL (≈ 7.99 µM) | MIC90 [4, 16]: 2 µg/mL (≈ 4 µM) | MIC90 [5, 17]: 0.25 µg/mL (≈ 0.5 µM) | MIC90 [6, 18]: 0.5 µg/mL (≈ 0.999 µM) | MIC90 [7, 19]: 4 µg/mL (≈ 7.99 µM) | MIC90 [8, 20]: 1 µg/mL (≈ 2 µM) | MIC90 [9, 21]: 1 µg/mL (≈ 2 µM) | MIC90 [10, 22]: 1 µg/mL (≈ 2 µM) | MIC90 [11, 23]: 2 µg/mL (≈ 4 µM) | MIC90 [12, 24]: 1 µg/mL (≈ 2 µM)

O=C1O[C@@H](CO)CN1c1ccc(-c2ccc(N3C=NOCC3)nc2)c(F)c1 [Compound 58]
MIC90 [1, 13]: 1 µg/mL (≈ 2.69 µM) | MIC90 [2, 14]: 0.5 µg/mL (≈ 1.34 µM) | MIC90 [3, 15]: 8 µg/mL (≈ 21.5 µM) | MIC90 [4, 16]: 4 µg/mL (≈ 10.7 µM) | MIC90 [5, 17]: 0.5 µg/mL (≈ 1.34 µM) | MIC90 [6, 18]: 0.5 µg/mL (≈ 1.34 µM) | MIC90 [7, 19]: 8 µg/mL (≈ 21.5 µM) | MIC90 [8, 20]: 1 µg/mL (≈ 2.69 µM) | MIC90 [9, 21]: 1 µg/mL (≈ 2.69 µM) | MIC90 [10, 22]: 1 µg/mL (≈ 2.69 µM) | MIC90 [11, 23]: 8 µg/mL (≈ 21.5 µM) | MIC90 [12, 24]: 0.5 µg/mL (≈ 1.34 µM)

CC(=O)NC[C@H]1CN(c2ccc(-c3ccc(N4CCNC=N4)nc3)c(F)c2)C(=O)O1 [Compound 53]
MIC90 ([1]; Enterococcus faecium): 1 µg/mL (≈ 2.42 µM) | MIC90 ([2]; Staphylococcus epidermidis): 1 µg/mL (≈ 2.42 µM) | MIC90 ([3]; Moraxella catarrhalis): 4 µg/mL (≈ 9.7 µM) | MIC90 ([4]; Enterococcus faecium): 4 µg/mL (≈ 9.7 µM) | MIC90 ([5]; Staphylococcus aureus): 1 µg/mL (≈ 2.42 µM) | MIC90 ([6]; Enterococcus faecium): 1 µg/mL (≈ 2.42 µM) | MIC90 ([7]; Enterococcus faecium): 4 µg/mL (≈ 9.7 µM) | MIC90 ([8]; Enterococcus faecalis): 1 µg/mL (≈ 2.42 µM) | MIC90 ([9]; Staphylococcus epidermidis): 2 µg/mL (≈ 4.85 µM) | MIC90 ([10]; Staphylococcus aureus): 2 µg/mL (≈ 4.85 µM) | MIC90 ([11]; Enterococcus faecalis): 4 µg/mL (≈ 9.7 µM) | MIC90 ([12]; Enterococcus faecalis): 1 µg/mL (≈ 2.42 µM)

O=C1O[C@@H](Cn2ccnn2)CN1c1ccc(-c2ccc(C3=NOCCN3)nc2)c(F)c1 [Compound 66]
MIC90 [1, 13]: 0.25 µg/mL (≈ 0.59 µM) | MIC90 [2, 14]: 0.25 µg/mL (≈ 0.59 µM) | MIC90 [3, 15]: 1 µg/mL (≈ 2.36 µM) | MIC90 [4, 16]: 1 µg/mL (≈ 2.36 µM) | MIC90 [5, 17]: 0.125 µg/mL (≈ 0.295 µM) | MIC90 [6, 18]: 0.125 µg/mL (≈ 0.295 µM) | MIC90 [7, 19]: 2 µg/mL (≈ 4.72 µM) | MIC90 [8, 20]: 0.25 µg/mL (≈ 0.59 µM) | MIC90 [9, 21]: 0.5 µg/mL (≈ 1.18 µM) | MIC90 [10, 22]: 0.5 µg/mL (≈ 1.18 µM) | MIC90 [11, 23]: 1 µg/mL (≈ 2.36 µM) | MIC90 [12, 24]: 0.25 µg/mL (≈ 0.59 µM)

NC(=O)N1CCN(c2ccc(-c3ccc(N4C[C@H](Cn5ccnn5)OC4=O)cc3F)cn2)C=N1 [Compound 33]
MIC90 ([1]; Enterococcus faecium): 0.25 µg/mL (≈ 0.537 µM) | MIC90 ([2]; Staphylococcus epidermidis): 0.25 µg/mL (≈ 0.537 µM) | MIC90 ([3]; Moraxella catarrhalis): 2 µg/mL (≈ 4.3 µM) | MIC90 ([4]; Enterococcus faecium): 2 µg/mL (≈ 4.3 µM) | MIC90 ([5]; Staphylococcus aureus): 0.25 µg/mL (≈ 0.537 µM) | MIC90 ([6]; Enterococcus faecium): 0.125 µg/mL (≈ 0.269 µM) | MIC90 ([7]; Enterococcus faecium): 2 µg/mL (≈ 4.3 µM) | MIC90 ([8]; Enterococcus faecalis): 0.25 µg/mL (≈ 0.537 µM) | MIC90 ([9]; Staphylococcus epidermidis): 1 µg/mL (≈ 2.15 µM) | MIC90 ([10]; Staphylococcus aureus): 1 µg/mL (≈ 2.15 µM) | MIC90 ([11]; Enterococcus faecalis): 2 µg/mL (≈ 4.3 µM) | MIC90 ([12]; Enterococcus faecalis): 0.25 µg/mL (≈ 0.537 µM)

O=C1O[C@@H](Cn2ccnn2)CN1c1ccc(-c2ccc(N3C=NOCC3)nc2)c(F)c1 [Compound 60]
MIC90 [1, 13]: 0.125 µg/mL (≈ 0.295 µM) | MIC90 [2, 14]: 0.25 µg/mL (≈ 0.59 µM) | MIC90 [3, 15]: 1 µg/mL (≈ 2.36 µM) | MIC90 [4, 16]: 1 µg/mL (≈ 2.36 µM) | MIC90 [5, 17]: 0.125 µg/mL (≈ 0.295 µM) | MIC90 [6, 18]: 0.125 µg/mL (≈ 0.295 µM) | MIC90 [7, 19]: 2 µg/mL (≈ 4.72 µM) | MIC90 [8, 20]: 0.25 µg/mL (≈ 0.59 µM) | MIC90 [9, 21]: 0.25 µg/mL (≈ 0.59 µM) | MIC90 [10, 22]: 0.25 µg/mL (≈ 0.59 µM) | MIC90 [11, 23]: 1 µg/mL (≈ 2.36 µM) | MIC90 [12, 24]: 0.25 µg/mL (≈ 0.59 µM)

O=C(C(O)CO)N1CCN(c2ccc(-c3ccc(N4C[C@H](COc5ccon5)OC4=O)cc3F)cn2)C=N1 (stereo partly drawn) [Compound 50]
MIC90 ([1]; strain 9, E. faecium VanA): 2 µg/mL (≈ 3.8 µM) | MIC90 ([2]; strain 3, S. epidermidis): 1 µg/mL (≈ 1.9 µM) | MIC90 ([3]; strain 12, M. catarrhalis): >128 µg/mL | MIC90 ([4]; strain 10, E. faecium VanA LR): 16 µg/mL (≈ 30.4 µM) | MIC90 ([5]; strain 1, S. aureus): 0.5 µg/mL (≈ 0.95 µM) | MIC90 ([6]; strain 8, E. faecium): 0.5 µg/mL (≈ 0.95 µM) | MIC90 ([7]; strain 11, E. faecium VanA LR): 32 µg/mL (≈ 60.8 µM) | MIC90 ([8]; strain 5, E. faecalis): 2 µg/mL (≈ 3.8 µM) | MIC90 ([9]; strain 4, S. epidermidis MR): 4 µg/mL (≈ 7.6 µM) | MIC90 ([10]; strain 2, S. aureus MR): 1 µg/mL (≈ 1.9 µM) | MIC90 ([11]; strain 7, E. faecalis VanA LR): 16 µg/mL (≈ 30.4 µM) | MIC90 ([12]; strain 6, E. faecalis VanA): 4 µg/mL (≈ 7.6 µM)

COC(=O)NC[C@H]1CN(c2ccc(-c3ccc(N4C=NN(C)CC4)nc3)c(F)c2)C(=O)O1 [Compound 24]
MIC90 ([1]; Enterococcus faecium): 0.5 µg/mL (≈ 1.13 µM) | MIC90 ([2]; Staphylococcus epidermidis): 0.5 µg/mL (≈ 1.13 µM) | MIC90 ([3]; Moraxella catarrhalis): 4 µg/mL (≈ 9.04 µM) | MIC90 ([4]; Enterococcus faecium): 4 µg/mL (≈ 9.04 µM) | MIC90 ([5]; Staphylococcus aureus): 0.5 µg/mL (≈ 1.13 µM) | MIC90 ([6]; Enterococcus faecium): 0.5 µg/mL (≈ 1.13 µM) | MIC90 ([7]; Enterococcus faecium): 8 µg/mL (≈ 18.1 µM) | MIC90 ([8]; Enterococcus faecalis): 1 µg/mL (≈ 2.26 µM) | MIC90 ([9]; Staphylococcus epidermidis): 2 µg/mL (≈ 4.52 µM) | MIC90 ([10]; Staphylococcus aureus): 1 µg/mL (≈ 2.26 µM) | MIC90 ([11]; Enterococcus faecalis): 4 µg/mL (≈ 9.04 µM) | MIC90 ([12]; Enterococcus faecalis): 1 µg/mL (≈ 2.26 µM)

COC(=O)NC[C@H]1CN(c2ccc(-c3ccc(C4=NOCCN4)nc3)c(F)c2)C(=O)O1 [Compound 65]
MIC90 [1, 13]: 0.5 µg/mL (≈ 1.16 µM) | MIC90 [2, 14]: 0.5 µg/mL (≈ 1.16 µM) | MIC90 [3, 15]: 2 µg/mL (≈ 4.66 µM) | MIC90 [4, 16]: 4 µg/mL (≈ 9.32 µM) | MIC90 [5, 17]: 0.5 µg/mL (≈ 1.16 µM) | MIC90 [6, 18]: 0.5 µg/mL (≈ 1.16 µM) | MIC90 [7, 19]: 4 µg/mL (≈ 9.32 µM) | MIC90 [8, 20]: 0.5 µg/mL (≈ 1.16 µM) | MIC90 [9, 21]: 1 µg/mL (≈ 2.33 µM) | MIC90 [10, 22]: 0.5 µg/mL (≈ 1.16 µM) | MIC90 [11, 23]: 4 µg/mL (≈ 9.32 µM) | MIC90 [12, 24]: 0.5 µg/mL (≈ 1.16 µM)
